Series [1] in a line: Microsomal clearance assay (M).
Protocol: The experiments were performed in 96-well glass plates at 37° C. on an automated Tecan EVO platform. Test compounds at a concentration of 10 mM in pure DMSO were diluted 1:1000 in water to 10 μM. […] Reactions were initiated by the addition of 150 μL of a cofactor solution containing 2 mM NADPH.
The target of a further series is PI 3-kinase alpha (Homo sapiens, UniProt P42336). Kind of series: Kinase Glo Luminescent Kinase Assay (Kglo), assay A. In kind it is biochemical. As to conditions: read-out: Assay A PI3Kα IC50. On the technique in general: In Kinase-Glo more light means more ATP remaining.
The target of another series is PI 3-kinase beta (Homo sapiens, UniProt P42338). Nature of the series: Kinase Glo Luminescent Kinase Assay (Kglo), assay B. As to conditions: read-out: Assay B PI3Kβ IC50. In kind it is biochemical.
Chain of PI 3-kinase beta (P42338 whole entry): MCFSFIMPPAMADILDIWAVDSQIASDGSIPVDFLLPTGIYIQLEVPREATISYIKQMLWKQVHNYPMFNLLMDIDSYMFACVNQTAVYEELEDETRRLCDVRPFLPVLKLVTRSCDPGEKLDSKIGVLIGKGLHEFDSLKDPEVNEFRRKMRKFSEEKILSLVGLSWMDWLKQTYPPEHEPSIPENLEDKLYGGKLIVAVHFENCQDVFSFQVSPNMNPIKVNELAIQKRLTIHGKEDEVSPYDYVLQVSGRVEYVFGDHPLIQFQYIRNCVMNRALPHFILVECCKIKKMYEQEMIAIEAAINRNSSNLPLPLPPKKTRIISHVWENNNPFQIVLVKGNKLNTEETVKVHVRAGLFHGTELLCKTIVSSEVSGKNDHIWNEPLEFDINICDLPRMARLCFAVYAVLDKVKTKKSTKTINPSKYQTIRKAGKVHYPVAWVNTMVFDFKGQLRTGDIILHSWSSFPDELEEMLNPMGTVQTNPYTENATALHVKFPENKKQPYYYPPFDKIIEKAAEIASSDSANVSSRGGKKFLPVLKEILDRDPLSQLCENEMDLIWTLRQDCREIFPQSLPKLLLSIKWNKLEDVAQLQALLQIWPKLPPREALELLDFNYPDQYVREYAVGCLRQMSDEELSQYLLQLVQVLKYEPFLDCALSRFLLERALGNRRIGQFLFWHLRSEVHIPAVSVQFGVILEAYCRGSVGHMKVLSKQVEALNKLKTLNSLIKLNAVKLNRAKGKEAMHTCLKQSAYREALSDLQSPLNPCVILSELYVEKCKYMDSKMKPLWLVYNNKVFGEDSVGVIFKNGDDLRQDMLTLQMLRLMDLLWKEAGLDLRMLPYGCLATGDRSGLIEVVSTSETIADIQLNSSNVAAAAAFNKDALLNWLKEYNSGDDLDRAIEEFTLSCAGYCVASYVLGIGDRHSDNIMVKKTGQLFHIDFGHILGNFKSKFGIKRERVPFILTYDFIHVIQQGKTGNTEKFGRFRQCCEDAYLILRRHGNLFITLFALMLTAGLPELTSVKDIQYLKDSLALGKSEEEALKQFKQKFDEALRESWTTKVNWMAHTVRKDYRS
Chain of PI 3-kinase beta (P27986 461-568 partner): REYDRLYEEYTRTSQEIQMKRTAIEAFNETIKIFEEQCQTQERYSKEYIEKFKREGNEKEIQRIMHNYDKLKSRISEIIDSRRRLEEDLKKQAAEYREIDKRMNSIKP
The target of the next series is Vps34 (Homo sapiens, UniProt Q8NEB9). Nature of the series: Kinase Glo Luminescent Kinase Assay (Kglo), assay C. In kind it is biochemical. The conditions noted are these: read-out: Assay C VPS34 IC50.
Chain of Vps34 (Q8NEB9 whole entry, species assumed): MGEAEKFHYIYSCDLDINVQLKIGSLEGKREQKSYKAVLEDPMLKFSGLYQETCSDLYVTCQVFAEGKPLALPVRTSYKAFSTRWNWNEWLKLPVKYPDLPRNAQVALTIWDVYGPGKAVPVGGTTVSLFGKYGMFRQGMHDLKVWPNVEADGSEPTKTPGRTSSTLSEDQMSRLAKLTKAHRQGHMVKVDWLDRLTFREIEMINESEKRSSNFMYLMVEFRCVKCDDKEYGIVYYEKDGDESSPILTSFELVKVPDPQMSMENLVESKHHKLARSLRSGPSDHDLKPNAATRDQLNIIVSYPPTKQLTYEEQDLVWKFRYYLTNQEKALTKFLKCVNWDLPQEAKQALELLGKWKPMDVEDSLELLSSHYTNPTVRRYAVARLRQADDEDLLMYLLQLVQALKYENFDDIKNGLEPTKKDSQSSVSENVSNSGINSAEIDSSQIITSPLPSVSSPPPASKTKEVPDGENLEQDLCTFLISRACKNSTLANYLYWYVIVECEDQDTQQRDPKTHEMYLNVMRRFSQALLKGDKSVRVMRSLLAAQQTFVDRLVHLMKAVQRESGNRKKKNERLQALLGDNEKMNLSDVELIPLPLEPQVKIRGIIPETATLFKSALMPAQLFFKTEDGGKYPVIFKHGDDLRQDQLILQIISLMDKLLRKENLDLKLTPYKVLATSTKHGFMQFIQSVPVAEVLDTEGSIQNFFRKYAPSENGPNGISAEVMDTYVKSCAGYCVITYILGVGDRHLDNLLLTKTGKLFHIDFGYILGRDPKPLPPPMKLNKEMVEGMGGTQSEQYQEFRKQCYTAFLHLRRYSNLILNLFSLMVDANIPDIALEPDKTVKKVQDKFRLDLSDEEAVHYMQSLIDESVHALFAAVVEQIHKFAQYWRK
A further series addresses PI 4-kinase beta (Homo sapiens, UniProt Q9UBF8). Nature of the series: Kinase Glo Luminescent Kinase Assay (Kglo), assay D. The conditions noted are these: read-out: Assay D PI4Kβ IC50. In kind it is biochemical.
The target in the next series is PI 3-kinase gamma (Homo sapiens, UniProt P48736). Kind of series: TR-FRET Adapta assay, assay E. It counts as biochemical. As to conditions: read-out: Assay E PI3Kγ IC50. For orientation: In TR-FRET formats the signal depends on donor and acceptor labels being close together.
Chain of PI 3-kinase gamma (P48736 whole entry): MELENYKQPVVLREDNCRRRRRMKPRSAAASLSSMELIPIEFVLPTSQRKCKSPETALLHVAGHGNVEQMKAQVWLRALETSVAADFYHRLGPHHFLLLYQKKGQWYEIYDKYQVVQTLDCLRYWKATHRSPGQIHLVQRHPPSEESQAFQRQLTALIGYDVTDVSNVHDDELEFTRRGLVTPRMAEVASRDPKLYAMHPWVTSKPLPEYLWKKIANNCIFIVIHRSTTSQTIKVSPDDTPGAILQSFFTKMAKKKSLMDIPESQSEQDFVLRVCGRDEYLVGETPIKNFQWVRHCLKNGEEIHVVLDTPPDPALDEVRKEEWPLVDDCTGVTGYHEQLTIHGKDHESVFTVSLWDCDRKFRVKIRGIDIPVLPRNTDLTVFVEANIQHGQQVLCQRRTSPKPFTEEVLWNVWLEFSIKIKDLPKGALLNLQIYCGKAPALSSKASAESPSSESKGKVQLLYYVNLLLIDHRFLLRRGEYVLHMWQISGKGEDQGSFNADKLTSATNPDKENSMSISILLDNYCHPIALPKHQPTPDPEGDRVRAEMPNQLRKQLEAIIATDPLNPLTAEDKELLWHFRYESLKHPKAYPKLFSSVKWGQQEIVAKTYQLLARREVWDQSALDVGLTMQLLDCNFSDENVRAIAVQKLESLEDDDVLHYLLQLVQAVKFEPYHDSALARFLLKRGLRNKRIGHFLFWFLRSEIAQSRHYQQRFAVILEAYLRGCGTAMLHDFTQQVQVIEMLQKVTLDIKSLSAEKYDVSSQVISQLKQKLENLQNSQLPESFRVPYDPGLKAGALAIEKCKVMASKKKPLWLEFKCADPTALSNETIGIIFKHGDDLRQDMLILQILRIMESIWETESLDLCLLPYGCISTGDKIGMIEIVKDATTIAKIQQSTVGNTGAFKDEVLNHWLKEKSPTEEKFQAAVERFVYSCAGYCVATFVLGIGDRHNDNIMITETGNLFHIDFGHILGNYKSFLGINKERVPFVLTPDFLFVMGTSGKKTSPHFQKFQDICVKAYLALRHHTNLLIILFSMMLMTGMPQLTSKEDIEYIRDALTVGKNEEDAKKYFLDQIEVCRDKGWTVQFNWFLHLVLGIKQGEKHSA
The target in a further series is PI 3-kinase delta (Homo sapiens, UniProt O00329). Nature of the series: TR-FRET Adapta assay, assay F.
Another series deals with mTOR (Homo sapiens, UniProt P42345). Kind of series: Lanthascreen kinase binding assay, assay G. The conditions noted are these: read-out: Assay G mTOR IC50.
Where [2] appears, read: rat liver microsomes, intrinsic clearance.
[3] abbreviates: intrinsic clearance in rat liver microsomes.

Like-named read-outs stand apart in the source and are kept apart here.

Chain of PI 3-kinase alpha (P42336 whole entry): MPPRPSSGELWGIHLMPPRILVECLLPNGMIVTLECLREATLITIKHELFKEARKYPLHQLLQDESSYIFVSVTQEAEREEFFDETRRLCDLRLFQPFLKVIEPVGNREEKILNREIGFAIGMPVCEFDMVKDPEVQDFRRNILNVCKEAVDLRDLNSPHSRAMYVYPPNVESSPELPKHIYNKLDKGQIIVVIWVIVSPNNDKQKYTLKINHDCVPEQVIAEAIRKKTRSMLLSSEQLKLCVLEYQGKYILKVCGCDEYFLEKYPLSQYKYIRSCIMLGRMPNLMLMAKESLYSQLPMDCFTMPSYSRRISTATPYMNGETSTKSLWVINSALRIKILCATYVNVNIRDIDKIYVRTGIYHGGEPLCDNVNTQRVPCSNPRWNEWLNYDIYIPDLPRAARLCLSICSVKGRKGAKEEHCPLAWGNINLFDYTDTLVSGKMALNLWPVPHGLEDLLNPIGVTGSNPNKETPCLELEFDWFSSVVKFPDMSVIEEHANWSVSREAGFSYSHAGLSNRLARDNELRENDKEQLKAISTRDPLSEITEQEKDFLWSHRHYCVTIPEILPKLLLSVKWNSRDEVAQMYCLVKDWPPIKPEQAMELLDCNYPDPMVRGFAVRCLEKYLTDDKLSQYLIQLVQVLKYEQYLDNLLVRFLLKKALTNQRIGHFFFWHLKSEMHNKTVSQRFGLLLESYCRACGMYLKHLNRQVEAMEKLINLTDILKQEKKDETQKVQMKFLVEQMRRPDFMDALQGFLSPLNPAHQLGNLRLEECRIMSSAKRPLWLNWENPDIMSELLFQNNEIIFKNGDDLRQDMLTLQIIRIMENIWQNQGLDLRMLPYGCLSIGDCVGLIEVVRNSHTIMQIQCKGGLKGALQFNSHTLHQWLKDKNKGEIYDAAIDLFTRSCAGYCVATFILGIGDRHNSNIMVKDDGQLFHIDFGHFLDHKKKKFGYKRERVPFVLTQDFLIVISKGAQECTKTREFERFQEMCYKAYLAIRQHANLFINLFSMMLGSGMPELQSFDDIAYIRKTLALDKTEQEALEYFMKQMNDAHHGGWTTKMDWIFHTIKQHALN
Chain of PI 4-kinase beta (Q9UBF8 whole entry): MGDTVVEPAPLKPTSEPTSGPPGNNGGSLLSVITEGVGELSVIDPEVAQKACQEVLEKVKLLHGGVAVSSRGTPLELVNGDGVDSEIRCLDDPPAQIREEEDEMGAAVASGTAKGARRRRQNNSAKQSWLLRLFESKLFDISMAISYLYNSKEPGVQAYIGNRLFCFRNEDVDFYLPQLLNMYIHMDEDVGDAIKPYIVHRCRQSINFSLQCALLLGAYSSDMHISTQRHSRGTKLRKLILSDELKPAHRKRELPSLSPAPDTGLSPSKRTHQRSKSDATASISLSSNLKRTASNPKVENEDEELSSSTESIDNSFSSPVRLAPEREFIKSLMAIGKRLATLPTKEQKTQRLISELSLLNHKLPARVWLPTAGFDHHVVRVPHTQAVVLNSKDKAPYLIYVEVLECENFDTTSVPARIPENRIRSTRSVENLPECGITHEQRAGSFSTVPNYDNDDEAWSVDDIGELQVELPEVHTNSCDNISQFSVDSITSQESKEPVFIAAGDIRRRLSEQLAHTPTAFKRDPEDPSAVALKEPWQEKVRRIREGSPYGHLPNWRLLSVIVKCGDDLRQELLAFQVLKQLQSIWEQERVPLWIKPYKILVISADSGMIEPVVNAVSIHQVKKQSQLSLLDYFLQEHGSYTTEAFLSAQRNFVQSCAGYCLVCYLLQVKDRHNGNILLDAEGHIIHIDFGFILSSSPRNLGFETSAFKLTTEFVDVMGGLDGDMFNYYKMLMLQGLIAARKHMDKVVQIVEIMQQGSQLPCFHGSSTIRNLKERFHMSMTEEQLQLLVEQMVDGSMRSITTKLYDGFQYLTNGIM
Protocol for PI 3-kinase delta: TR-FRET Adapta Assay for PI 3-Kinase Gamma (E), PI 3-Kinase Delta (F)
The TR-FRET Adapta™ Universal Kinase Assay Kit was purchased from Invitrogen Corporation (Carlsbad/CA, USA) (Cat. No. PV5099).
PIK3CD substrate phosphatidylinositol (PI) was obtained from Invitrogen (vesicules consisting of 2 mM phosphatidylinositol (PI) in 50 mM HEPES pH7.5; Cat. No. PV5371). PIK3CG substrate phosphatidylinositol-4,5-bisphosphate (PIP(4,5)2 was obtained from Invitrogen (PIP2:PS large unilamellar vesicules consisting of 1 mM PIP2: 19 mM PS in 50 mM HEPES pH7.5, 3 mM MgCl2, 1 mM EGTA; Cat. No. PV5100).
Time-Resolved Fluorescence Resonance Energy Transfer (TR-FRET) is a technology based on energy transfer between two adjacent dyes, from an excited electron in one dye (the donor) to an electron of an adjacent dye (the acceptor) through resonance, then released as a photon. This energy transfer is detected by an increase in the fluorescence emission of the acceptor, and a decrease in the fluorescence emission of the donor. TR-FRET assays for protein kinases use a long-lifetime lanthanide Terbium or Europium chelates as the donor species which overcome interference from compound autofluorescence or light scatter from precipitated compounds, by introducing a delay after excitation by a flashlamp excitation source. Results are often expressed as a ratio of the intensities of the acceptor and donor fluorophores. The ratiometric nature of such a value corrects for differences in assay volumes between wells, as well as corrects for quenching effects due to colored compounds. The Adapta™ assay can be divided into two phases: a kinase reaction phase and an ADP detection phase. In the kinase reaction phase, all kinase reaction components are added to the well and the reaction is allowed to incubate for a set period of time specific for each kinase. […] In the presence of an inhibitor, the amount of ADP formed by the kinase reaction is reduced, and the resulting intact antibody-tracer interaction maintains a high TR-FRET signal.
50 nL of compound dilutions were dispensed onto white 384-well small volume polystyrene plate. Then 5 μL of either PI 3-kinase gamma or PI 3-kinase delta and lipid substrate (PI or PIP2:PS) followed by 5 μL of ATP (final assay volume 10 μL) are incubated at RT. The standard reaction buffer for the Adapta™ TR-FRET assay contained 10 mM Tris-HCl pH 7.5, 3 mM MgCl2, 50 mM NaCl, 1 mM DTT, 0.05% CHAPS 3-[(3-cholamidopropyl)dimethylammonio]-1-propanesulfonate).
Data are analyzed using Excel fit software or Graphpad Prism. IC50 values were derived by fitting a sigmoidal dose-response curve to a plot of assay readout over inhibitor concentration. All fits were performed with the program XLfit4 (ID Business Solutions, Guildford, UK). […] All fits were performed with the program XLfit4 (ID Business Solutions, Guildford, UK).
Protocol for Vps34: Kinase Glo Luminescent Kinase Assay (Kglo) for Pb 3-Kinase Alpha (A), Pb 3-Kinase Beta (B), Vps34 (C), Pb 4-Kinase Beta (D)
The Kinase Glo Luminescent Kinase Assay (Promega, Madison/Wis., USA) is a homogeneous HTS method of measuring kinase activity by quantifying the amount of ATP remaining in solution following a kinase reaction.
L-α-phosphatidylinositol (PI), provided as 10 mg/ml solution in methanol, was transferred into a glass tube and dried under a nitrogen beam. It was then resuspended in 3% OctylGlucoside (1-0-n-octyl-beta-D-glucopyranoside) by vortexing and stored at 4° C. 5 μL of a mix of PI/OctylGlucoside with the PI 3-kinase alpha and PI 3-kinase beta subtypes, or Vps34 or PI 4-kinase beta were added. Kinase reactions were started by the addition of 5 μl of an ATP-mix containing in a final volume 10 μL 10 mM TRIS-HCl pH 7.5, 3 mM MgCl2, 50 mM NaCl, 0.05% CHAPS, 1 mM DTT and 1 μM ATP at room temperature.
All fits were performed with the program XLfit4 (ID Business Solutions, Guildford, UK).
Protocol for mTOR: Lanthascreen™ Kinase Binding Assay for mTOR (G)
Binding of an inhibitor to the kinase competes for binding with the tracer, resulting in a loss of FRET.
50 nL of compound dilutions were dispensed onto white 384-well small volume polystyrene plate.

`Cc1ccc(S(=O)(=O)N2CCOCC2)cc1-c1cnc(N)c(C(=O)c2cccnc2)c1` [(i), reference compound] yielded an Assay M RLM CI(int) in series [1] (setting [2]) of 47 µL/min/mg.
As for `CN1CCN(S(=O)(=O)c2cccc(-c3cnc(N)c(C(=O)c4cccnc4)c3)c2)CC1` [(ii), reference compound], the Assay M RLM CI(int) in series [1] (setting [2]) came out at 233 µL/min/mg.
In series [1] (setting [2]), `CC(C)(C)c1ccc(C(=O)c2cc(-c3cccc(S(=O)(=O)NC4CC4)c3)cnc2N)cc1` [(iii), reference compound] registered an Assay M RLM CI(int) of 219 µL/min/mg.
In series [1] (setting [2]), `COCCNS(=O)(=O)c1cccc(-c2cnc(N)c(C(=O)c3cccnc3)n2)c1` [(iv), reference compound] returned an Assay M RLM CI(int) of 465 µL/min/mg.
Consider `Cc1ccc(S(=O)(=O)N2CCOCC2)cc1-c1cnc(N)c(C(=O)c2cccnc2)n1` [(ix), reference compound], for which the Assay M RLM CI(int) in series [1] (setting [2]) was found to be 267 µL/min/mg.
As for `Nc1ncc(-c2ccc(Cl)c(S(=O)(=O)N[C@H]3CC[C@H](O)CC3)c2)nc1C(=O)c1cccnc1` [(v), reference compound], the Assay M RLM CI(int) in series [1] (setting [2]) was 173 µL/min/mg.
Molecule `COCCNS(=O)(=O)c1cc(-c2cnc(N)c(C(=O)c3cccnc3)n2)ccc1Cl` [(vi), reference compound] displayed an Assay M RLM CI(int) in series [1] (setting [2]) of 630 µL/min/mg.
In turn, `COCCNS(=O)(=O)c1cc(-c2cnc(N)c(C(=O)c3cccnc3)n2)c(F)cc1F` [(vii), reference compound] showed an Assay M RLM CI(int) in series [1] (setting [2]) of 283 µL/min/mg.
In series [1] (setting [2]), `CNC(=O)c1nc(-c2ccc(Cl)c(S(=O)(=O)Nc3cccc(F)c3C)c2)cnc1N` [(xi), reference compound] returned an Assay M RLM CI(int) of 271 µL/min/mg.
`Cc1nc(N)ncc1-c1ccc(Cl)c(S(=O)(=O)NCCO)c1` [(xii), reference compound] gave an Assay M RLM CI(int) in series [1] (setting [2]) of 9 µL/min/mg.
By IC50 is commonly meant the concentration that gives 50% inhibition. Regarding `Cc1ncc(-c2nc(-c3cc(S(=O)(=O)NCC4CCOCC4)ccc3C)cnc2N)s1` [Example 45.2, 3-(5-Amino-6-(2-methylthiazol-5-yl)pyrazin-2-yl)-4-methyl-N-((tetrahydro-2H-pyran-4-yl)methyl)benzenesulfonamide], the IC50 on PI 3-kinase alpha turned out to be 0.04 µM; at PI 3-kinase beta it was 0.37 µM; at Vps34 it was 6 µM; on PI 4-kinase beta, 5.8 µM; on PI 3-kinase gamma it was 0.018 µM; on PI 3-kinase delta (read-out: Assay F PI3Kδ IC50) it was 0.05 µM. The “Assay M RLM CI(int)” value in series [1] (setting [3]) is 194 µL/min/mg.
For the molecule `Cc1ncc(-c2nc(-c3cc(S(=O)(=O)NCC(F)(F)F)ccc3C)cnc2N)s1` [Example 45.5, 3-(5-Amino-6-(2-methylthiazol-5-yl)pyrazin-2-yl)-4-methyl-N-(2,2,2-trifluoroethyl)benzenesulfonamide], the half-maximal inhibitory concentration (IC50) came to 0.65 µM at Vps34 and 0.78 µM at PI 4-kinase beta. For the same molecule, the “Assay M RLM CI(int)” value in series [1] (setting [3]) turned out to be 147 µL/min/mg.
`Cc1ncc(-c2nc(-c3cc(S(=O)(=O)N[C@@H]4CCOC4)ccc3C)cnc2N)s1` [Example 45.7a, (R)-3-(5-Amino-6-(2-methylthiazol-5-yl)pyrazin-2-yl)-4-methyl-N-(tetrahydrofuran-3-yl)benzenesulfonamide or (5)-3-(5-Amino-6-(2-methylthiazol-5-yl)pyrazin-2-yl)-4-methyl-N-(tetrahydrofuran-3-yl)benzenesulfonamide]: in series [1] (setting [3]), the “Assay M RLM CI(int)” value came to 151 µL/min/mg.
The same measure, in the same setting: the value for `Cc1ncc(-c2nc(-c3cc(S(=O)(=O)N[C@@H]4CCOC4)ccc3C)cnc2N)s1` [Example 45.7b, (R)-3-(5-Amino-6-(2-methylthiazol-5-yl)pyrazin-2-yl)-4-methyl-N-(tetrahydrofuran-3-yl)benzenesulfonamide or (5)-3-(5-Amino-6-(2-methylthiazol-5-yl)pyrazin-2-yl)-4-methyl-N-(tetrahydrofuran-3-yl)benzenesulfonamide] was 135 µL/min/mg.
`Cc1nc(C)c(-c2nc(-c3cc(S(=O)(=O)NCC(C)(C)O)ccc3C)cnc2N)s1` [Example 46.1, 3-(5-Amino-6-(2,4-dimethylthiazol-5-yl)pyrazin-2-yl)-N-(2-hydroxy-2-methylpropyl)-4-methylbenzenesulfonamide]: the IC50 on PI 3-kinase alpha was 1.4 µM; on PI 3-kinase beta it was greater than 10 µM; at Vps34, greater than 10 µM; on PI 4-kinase beta it was greater than 10 µM; on PI 3-kinase gamma, 0.21 µM; on mTOR, greater than 10 µM. In addition, the IC50 on PI 3-kinase delta (read-out: Assay F PI3Kδ IC50) came out at 2.6 µM. In addition, the “Assay M RLM CI(int)” value in series [1] (setting [3]) was found to be 16 µL/min/mg.
On to `Cc1ncc(-c2nc(-c3cc(S(=O)(=O)NCC4(C)COC4)ccc3C)cnc2N)s1` [Example 120, 3-(5-Amino-6-(2-methylthiazol-5-yl)pyrazin-2-yl)-4-methyl-N-((3-methyloxetan-3-yl)methyl)benzenesulfonamide], for which the IC50 on PI 3-kinase alpha turned out to be 0.02 µM; at PI 3-kinase beta it was 1 µM; on Vps34, 1.3 µM; at PI 4-kinase beta, 2.5 µM; at PI 3-kinase gamma it was 0.004 µM; at PI 3-kinase delta (read-out: Assay F PI3Kδ IC50) it was 0.06 µM. The “Assay M RLM CI(int)” value in series [1] (setting [3]) was found to be 95 µL/min/mg.
Turning to `Cc1cc(-c2nc(-c3cc(S(=O)(=O)NCC4(C(N)=O)CCOCC4)ccc3C)cnc2N)ccn1` [Example 129.31, 4-((3-(5-amino-6-(2-methylpyridin-4-yl)pyrazin-2-yl)-4-methylphenylsulfonamido)methyl)tetrahydro-2H-pyran-4-carboxamide], the IC50 is 0.29 µM on PI 3-kinase alpha; 1.8 µM at PI 3-kinase beta; greater than 9.1 µM at Vps34; 6.7 µM on PI 4-kinase beta; 0.12 µM on PI 3-kinase gamma; greater than 9.1 µM at mTOR. Also, the 50% inhibitory concentration (IC50) on PI 3-kinase delta (read-out: Assay F PI3Kδ IC50) is 0.8 µM.
On to `CNCCNS(=O)(=O)c1ccc(C)c(-c2cnc(N)c(-c3ccnc(C)c3)n2)c1` [Example 129.33, 3-(5-amino-6-(2-methylpyridin-4-yl)pyrazin-2-yl)-4-methyl-N-(2-(methylamino)ethyl)benzenesulfonamide], for which the IC50 is 2.3 µM at PI 3-kinase alpha; greater than 9.1 µM on PI 3-kinase beta; greater than 9.1 µM on Vps34; greater than 9.1 µM on PI 4-kinase beta; 0.26 µM on PI 3-kinase gamma; greater than 9.1 µM at mTOR. Moreover, the IC50 on PI 3-kinase delta (read-out: Assay F PI3Kδ IC50) was found to be 2 µM.
On to `Cc1cc(-c2nc(-c3cc(S(=O)(=O)NCCN)ccc3C)cnc2N)ccn1` [Example 129.34, 3-(5-amino-6-(2-methylpyridin-4-yl)pyrazin-2-yl)-N-(2-aminoethyl)-4-methylbenzenesulfonamide], for which the IC50 at PI 3-kinase alpha was 0.7 µM; at PI 3-kinase beta, greater than 9.1 µM; on Vps34, greater than 9.1 µM; on PI 4-kinase beta, greater than 9.1 µM; at PI 3-kinase gamma it was 0.11 µM; on mTOR, greater than 9.1 µM. For the same molecule, the IC50 on PI 3-kinase delta (read-out: Assay F PI3Kδ IC50) came out at 1.2 µM.
For the molecule `Cc1cc(-c2nc(-c3cc(S(=O)(=O)N4CC5(CNC5)C4)ccc3C)cnc2N)ccn1` [Example 129.37, 5-(5-(2,6-diazaspiro[3.3]heptan-2-ylsulfonyl)-2-methylphenyl)-3-(2-methylpyridin-4-yl)pyrazin-2-amine], the concentration for half-maximal inhibition (IC50) at PI 3-kinase alpha was 1.3 µM; at PI 3-kinase beta, greater than 9.1 µM; at Vps34, greater than 9.1 µM; on PI 4-kinase beta it was 8.3 µM; at PI 3-kinase gamma, 0.54 µM; on mTOR, greater than 9.1 µM. The IC50 at PI 3-kinase delta (read-out: Assay F PI3Kδ IC50) was 2.8 µM.
As for `Cc1cc(-c2nc(-c3cc(S(=O)(=O)N[C@H]4CCC[C@@H]4N)ccc3C)cnc2N)ccn1` [Example 129.38, 3-(5-amino-6-(2-methylpyridin-4-yl)pyrazin-2-yl)-N-((1S,2S)-2-aminocyclopentyl)-4-methylbenzenesulfonamide], the IC50 on PI 3-kinase alpha was 1.6 µM; on PI 3-kinase beta, 2.7 µM; at Vps34 it was greater than 9.1 µM; at PI 4-kinase beta, greater than 9.1 µM; at PI 3-kinase gamma, 0.82 µM; at mTOR, greater than 9.1 µM. In addition, on PI 3-kinase delta, the IC50 was determined as 4.5 µM.
As for `Cc1cc(-c2nc(-c3cc(S(=O)(=O)N4CC[C@@H](N)C4)ccc3C)cnc2N)ccn1` [Example 129.40, (R)-5-(5-(3-aminopyrrolidin-1-ylsulfonyl)-2-methylphenyl)-3-(2-methylpyridin-4-yl)pyrazin-2-amine], the IC50 at PI 3-kinase alpha is 0.67 µM; on PI 3-kinase beta, 6.4 µM; at Vps34 it was greater than 9.1 µM; on PI 4-kinase beta, greater than 9.1 µM; on PI 3-kinase gamma, 1.1 µM; at mTOR it was greater than 9.1 µM. Besides, the IC50 on PI 3-kinase delta (read-out: Assay F PI3Kδ IC50) stood at 4 µM.
Turning to `Cc1cc(-c2nc(-c3cc(S(=O)(=O)NC[C@H]4CCC[C@@H](CN)C4)ccc3C)cnc2N)ccn1` [Example 129.42, 3-(5-amino-6-(2-methylpyridin-4-yl)pyrazin-2-yl)-N-(((1S,3R)-3-(aminomethyl)cyclohexyl)methyl)-4-methylbenzenesulfonamide], the concentration for half-maximal inhibition (IC50) at PI 3-kinase alpha is 2 µM; at PI 3-kinase beta, 6.6 µM; at Vps34 it was greater than 9.1 µM; at PI 4-kinase beta it was greater than 9.1 µM; on PI 3-kinase gamma it was 0.15 µM; on mTOR, greater than 9.1 µM. For the same molecule, the IC50 at PI 3-kinase delta (read-out: Assay F PI3Kδ IC50) was 1.7 µM.
In the case of `Cc1cc(-c2nc(-c3cc(S(=O)(=O)N[C@H]4CC[C@H](N)CC4)ccc3C)cnc2N)ccn1` [Example 129.43, 3-(5-amino-6-(2-methylpyridin-4-yl)pyrazin-2-yl)-N-((1r,4r)-4-aminocyclohexyl)-4-methylbenzenesulfonamide], the IC50 on PI 3-kinase alpha is 3 µM; at PI 3-kinase beta it was 5.7 µM; at Vps34 it was greater than 9.1 µM; at PI 4-kinase beta, greater than 9.1 µM; on PI 3-kinase gamma, 1 µM; on mTOR it was greater than 9.1 µM. Moreover, the IC50 at PI 3-kinase delta (read-out: Assay F PI3Kδ IC50) came out at 2.3 µM.

The record behind these values is patent US10004732B2 (Novartis AG, priority 2014, dated 2018).
